# Earlier results in US7759312B2 (priority 2005, dated 2010).
# Experiments:
# GH = conditions: following a subcutaneous octreotide injection
# IGF-1 = conditions: acromegaly
# [1] = patients with acromegaly
substance,measurement,setting,value
"L-cysteinamide, D-phenylalanyl-L-cysteiny-L-phenylalanyl-D-tryptophyl-L-lysyl-L-threonyl-N-[2-hydroxy-1-(hydroxymethyl)propyl]-,cyclic(2→7)-disulfide; [Octreotide, L-cysteinamide, D-phenylalanyl-L-cysteiny-L-phenylalanyl-D-tryptophyl-L-lysyl-L-threonyl-N-[2-hydroxy-1-(hydroxymethyl)propyl]-,cyclic(2→7)-disulfide; [R—(R*,R*)]]",time to decrease of GH levels,GH,within two hours
same,patients with normalization of IGF-1 levels,IGF-1,up to 60%
same,mean percent of the drug bound,[1],41.2%
same,total body clearance,[1],18 L/h
same,mean peak concentration,"[1]; 100 mcg dose, subcutaneous",2.8 ng/mL
same,time to mean peak concentration,"[1]; 100 mcg dose, subcutaneous",0.7 h
